Like-named read-outs stand apart in the source and are kept apart here.
Key:
[1] = target: T1, COX-1 (Ovis aries, UniProt P05979); experiment: Cyclooxygenase COX-1 inhibitory assay (Cayman COX inhibitor assay kit); assay type: biochemical, ovine; details: mean ± SD, n=3; for inhibition at 2.5 µg/mL / inhibition at 5 µg/mL / inhibition at 7.5 µg/mL / inhibition at 10 µg/mL: read-out: Percentage inhibition COX1
T1 construct: purchased Cayman 560131
T1 sequence (P05979 25-600): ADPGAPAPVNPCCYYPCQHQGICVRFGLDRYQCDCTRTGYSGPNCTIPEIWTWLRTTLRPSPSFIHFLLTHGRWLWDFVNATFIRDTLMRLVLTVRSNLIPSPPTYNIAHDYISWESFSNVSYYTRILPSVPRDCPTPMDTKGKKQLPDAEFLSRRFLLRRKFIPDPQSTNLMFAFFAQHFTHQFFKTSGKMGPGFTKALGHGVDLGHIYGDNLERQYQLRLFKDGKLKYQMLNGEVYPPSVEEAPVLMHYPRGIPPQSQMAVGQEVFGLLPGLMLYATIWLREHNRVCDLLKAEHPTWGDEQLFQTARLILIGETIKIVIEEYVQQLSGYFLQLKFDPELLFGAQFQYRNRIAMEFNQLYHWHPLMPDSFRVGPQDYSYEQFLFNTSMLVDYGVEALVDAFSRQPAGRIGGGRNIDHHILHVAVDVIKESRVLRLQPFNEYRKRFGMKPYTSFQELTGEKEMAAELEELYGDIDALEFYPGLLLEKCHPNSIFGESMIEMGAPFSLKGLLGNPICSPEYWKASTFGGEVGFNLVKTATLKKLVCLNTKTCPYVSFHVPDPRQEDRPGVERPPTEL
Protocol: (§1) To 10 µl of either COX1 or COX2 added 0.1 M Tris–HCl buffer (960 µl) and different known concentrations of test samples and incubated at 37 °C for 10 min. Later 10 µl of 100 µM arachidonic acid, after 2 min 1 M HCl of 50 µl and Ellman’s reagent, were added. The absorbance was measured spectrophotometrically at 410 nm against the blank. The percentage of inhibition was deliberated with the absorbance values, and IC50 values were calculated by linear regression.

[2] = target: T2, COX-2 (Homo sapiens, UniProt P35354); experiment: Cyclooxygenase COX-2 inhibitory assay (Cayman COX inhibitor assay kit); assay type: biochemical; details: mean ± SD, n=3; for inhibition at 2.5 µg/mL / inhibition at 5 µg/mL / inhibition at 7.5 µg/mL / inhibition at 10 µg/mL: read-out: Percentage inhibition COX2
T2 construct: purchased Cayman 560131
T2 sequence (P35354 18-604): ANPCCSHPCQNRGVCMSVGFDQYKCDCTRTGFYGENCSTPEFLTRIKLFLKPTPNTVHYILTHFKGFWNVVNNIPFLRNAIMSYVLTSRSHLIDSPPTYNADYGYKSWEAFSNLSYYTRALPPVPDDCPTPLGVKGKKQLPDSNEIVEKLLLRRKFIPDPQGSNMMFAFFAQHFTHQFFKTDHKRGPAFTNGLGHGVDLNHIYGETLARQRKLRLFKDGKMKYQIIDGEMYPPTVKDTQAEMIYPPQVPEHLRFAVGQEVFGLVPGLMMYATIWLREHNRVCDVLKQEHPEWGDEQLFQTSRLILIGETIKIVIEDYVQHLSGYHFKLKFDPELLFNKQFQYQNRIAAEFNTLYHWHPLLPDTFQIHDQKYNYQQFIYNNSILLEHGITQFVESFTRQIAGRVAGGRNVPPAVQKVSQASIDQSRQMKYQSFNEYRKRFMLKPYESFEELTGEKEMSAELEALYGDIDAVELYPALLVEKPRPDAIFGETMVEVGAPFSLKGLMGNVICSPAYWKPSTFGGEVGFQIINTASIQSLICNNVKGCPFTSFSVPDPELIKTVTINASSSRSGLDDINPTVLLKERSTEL
Protocol: as §1

[3] = target: T3, 5-LOX (human recombinant) (Homo sapiens, UniProt P09917); experiment: 5-lipoxygenase inhibitory assay (5-LOX assay kit); assay type: biochemical; details: mean ± SD, n=3; for inhibition at 2.5 µg/mL / inhibition at 5 µg/mL / inhibition at 7.5 µg/mL / inhibition at 10 µg/mL: read-out: Percentage inhibition 5-LOX
T3 construct: purchased Sigma Aldrich 437996
T3 sequence (P09917 1-674): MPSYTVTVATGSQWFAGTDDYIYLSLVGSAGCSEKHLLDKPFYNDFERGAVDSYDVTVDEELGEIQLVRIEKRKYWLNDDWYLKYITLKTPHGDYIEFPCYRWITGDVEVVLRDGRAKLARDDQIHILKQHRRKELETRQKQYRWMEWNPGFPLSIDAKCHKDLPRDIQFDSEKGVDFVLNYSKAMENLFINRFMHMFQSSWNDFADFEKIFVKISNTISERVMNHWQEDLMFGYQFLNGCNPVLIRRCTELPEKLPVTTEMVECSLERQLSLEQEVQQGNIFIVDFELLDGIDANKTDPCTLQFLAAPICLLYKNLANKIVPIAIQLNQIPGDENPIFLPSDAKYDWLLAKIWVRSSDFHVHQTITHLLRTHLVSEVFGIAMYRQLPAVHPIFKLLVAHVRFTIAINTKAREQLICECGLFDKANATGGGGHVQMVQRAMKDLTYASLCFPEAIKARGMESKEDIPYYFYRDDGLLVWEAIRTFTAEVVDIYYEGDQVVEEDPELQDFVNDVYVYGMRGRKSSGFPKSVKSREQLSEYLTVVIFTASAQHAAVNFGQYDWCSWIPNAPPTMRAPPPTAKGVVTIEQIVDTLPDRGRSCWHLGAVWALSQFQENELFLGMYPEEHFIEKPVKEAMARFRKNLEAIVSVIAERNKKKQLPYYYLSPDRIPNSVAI
Protocol: To 90 µl of 5-LOX enzyme solution added different test sample concentrations, 100 µl of de chromogen, and finally added 10 µl of the substrate (arachidonic acid) and gently shake or 10 min and absorbance was measured at 490 nm against the blank. The % inhibition was deliberated with the absorbance values by which IC50 values were calculated by linear regression.

[4] = linear regression, read-out: IC50 values COX1 (converted)
[5] = linear regression, read-out: IC50 values COX2 (converted)
[6] = IC50 5-LOX (concentration required for 50% inhibition), Fig. 2
[7] = linear regression, read-out: IC50 values 5-LOX (converted)

## C=C1C(O)CCC2C1(C)CCC(C)C2(C)CCC1=CC(=O)OC1O (stereo not drawn) [Compound 4, 3α,16α-dihydroxy-cleroda-4(18),13(14)Z-dien-15,16-olide]
[1]
  inhibition at 2.5 µg/mL: 40.8 ± 0.79%
  inhibition at 5 µg/mL: 61.1 ± 0.69%
  inhibition at 7.5 µg/mL: 72.3 ± 3.77%
  inhibition at 10 µg/mL: 79.5 ± 2.53%
[1]; Fig. 2, read-out: IC50 COX-1
  IC50: 10.8 ± 0.17 µM
[1]; [4]
  IC50: 10.9 µM
[2]
  inhibition at 2.5 µg/mL: 36.8 ± 2.52%
  inhibition at 5 µg/mL: 55.21 ± 0.43%
  inhibition at 7.5 µg/mL: 67.1 ± 2.47%
  inhibition at 10 µg/mL: 75.1 ± 2.73%
[2]; Fig. 2, read-out: IC50 COX-2
  IC50: 12.8 ± 0.21 µM
[2]; [5]
  IC50: 12.8 µM
[3]
  inhibition at 2.5 µg/mL: 23.2 ± 2.28%
  inhibition at 5 µg/mL: 44.3 ± 1.68%
  inhibition at 7.5 µg/mL: 55.4 ± 0.65%
  inhibition at 10 µg/mL: 67.2 ± 2.67%
[3]; [6]
  IC50: 16.9 ± 0.56 µM
[3]; [7]
  IC50: 17 µM

## CC1=CCCC2C1(C)CCC(C)C2(C)CCC1=CC(=O)OC1O (stereo not drawn) [Compound 5, 16α-hydroxy-cleroda-3,13(14)Z-dien-15,16-olide]
[1]
  inhibition at 2.5 µg/mL: 42.3 ± 2.05%
  inhibition at 5 µg/mL: 79.5 ± 1.01%
  inhibition at 7.5 µg/mL: 86.5 ± 1.27%
  inhibition at 10 µg/mL: 92.9 ± 2.46%
[1]; Fig. 2, read-out: IC50 COX-1
  IC50: 9.46 ± 0.33 µM
[1]; [4]
  IC50: 9.45 µM
[2]
  inhibition at 2.5 µg/mL: 46.6 ± 0.9%
  inhibition at 5 µg/mL: 57.2 ± 1.57%
  inhibition at 7.5 µg/mL: 69.3 ± 3.66%
  inhibition at 10 µg/mL: 79.4 ± 4.39%
[2]; Fig. 2, read-out: IC50 COX-2
  IC50: 10.3 ± 0.26 µM
[2]; [5]
  IC50: 10.3 µM
[3]
  inhibition at 2.5 µg/mL: 30 ± 1.04%
  inhibition at 5 µg/mL: 54.1 ± 1.1%
  inhibition at 7.5 µg/mL: 67.2 ± 4.61%
  inhibition at 10 µg/mL: 75.8 ± 2.97%
[3]; [6]
  IC50: 14.4 ± 0.32 µM
[3]; [7]
  IC50: 14.4 µM

## O=C(O)Cc1ccccc1Nc1c(Cl)cccc1Cl [Diclofenac, reference compound]
[3]
  inhibition at 2.5 µg/mL: 12.4 ± 1.49%
  inhibition at 5 µg/mL: 23.1 ± 4.16%
  inhibition at 7.5 µg/mL: 42.8 ± 1.82%
  inhibition at 10 µg/mL: 64.4 ± 0.72%
